Legend:
[1] = xn = mol fraction of the nth substance listed; details: 96.64 kPa, Liquid, mechanical oscillator
[2] = refractive index (Na D-line) (dimensionless); xn = mol fraction of the nth substance listed; details: 94.64 kPa, Liquid, Standard Abbe refractometry

CC(=O)O [acetic acid] + O
Details | mass density, 293.15 K [kg/m3] | mass density, 298.15 K [kg/m3] | mass density, 303.15 K [kg/m3] | refractive index, 293.15 K | refractive index, 298.15 K | refractive index, 303.15 K
[1], x1 = 0.0322 | 1013.1 | 1010.07 | 1007.37 | – | – | –
[1], x1 = 0.0697 | 1029.11 | 1024.31 | 1021.16 | – | – | –
[1], x1 = 0.114 | 1040.03 | 1036.43 | 1032.93 | – | – | –
[1], x1 = 0.167 | 1049.79 | 1045.44 | 1039.59 | – | – | –
[1], x1 = 0.231 | 1057.69 | 1053.12 | 1048.56 | – | – | –
[1], x1 = 0.31 | 1064.29 | 1059.45 | 1054.48 | – | – | –
[1], x1 = 0.412 | 1068.57 | 1063.31 | 1058.16 | – | – | –
[1], x1 = 0.545 | 1068.93 | 1063.47 | 1058.01 | – | – | –
[1], x1 = 0.629 | 1067.42 | 1061.15 | 1057.17 | – | – | –
[1], x1 = 0.729 | 1062.82 | 1058.08 | 1053.26 | – | – | –
[1], x1 = 0.85 | 1059.62 | 1053.73 | 1047.95 | – | – | –
[1], x1 = 1 | 1049.63 | 1043.57 | 1037.64 | – | – | –
[2], x1 = 0.0322 | – | – | – | 1.34079 | 1.34007 | 1.33927
[2], x1 = 0.0697 | – | – | – | 1.34792 | 1.34695 | 1.34593
[2], x1 = 0.114 | – | – | – | 1.35489 | 1.35372 | 1.3525
[2], x1 = 0.167 | – | – | – | 1.3609 | 1.35957 | 1.35822
[2], x1 = 0.231 | – | – | – | 1.36583 | 1.36436 | 1.36288
[2], x1 = 0.31 | – | – | – | 1.37062 | 1.369 | 1.36736
[2], x1 = 0.412 | – | – | – | 1.37406 | 1.37233 | 1.37058
[2], x1 = 0.545 | – | – | – | 1.37703 | 1.37519 | 1.37331
[2], x1 = 0.629 | – | – | – | 1.37724 | 1.37545 | 1.37349
[2], x1 = 0.729 | – | – | – | 1.37721 | 1.3753 | 1.37335
[2], x1 = 0.85 | – | – | – | 1.37559 | 1.37359 | 1.3716
[2], x1 = 1 | – | – | – | 1.37224 | 1.37012 | 1.36809

Reference: the NIST ThermoML archive (doi:10.1021/acs.jced.5b00197)
